Measured values reported in patent publication US8101760B2, “Glucocorticoid receptor modulator and methods of use” (Eli Lilly and Company, priority 2007, dated 2012).

Experiments:
[1] = target: T1, human androgen receptor (AR) (Homo sapiens, UniProt P10275); experiment: Nuclear hormone receptor functional modulation assay (ARE-luciferase, HEK293), AR; assay type: cell-based
T1 construct: expressed in transfected cells; host or cells: HEK293, transient transfection (Fugene), CMV promoter plasmid
T1 sequence (P10275 1-920): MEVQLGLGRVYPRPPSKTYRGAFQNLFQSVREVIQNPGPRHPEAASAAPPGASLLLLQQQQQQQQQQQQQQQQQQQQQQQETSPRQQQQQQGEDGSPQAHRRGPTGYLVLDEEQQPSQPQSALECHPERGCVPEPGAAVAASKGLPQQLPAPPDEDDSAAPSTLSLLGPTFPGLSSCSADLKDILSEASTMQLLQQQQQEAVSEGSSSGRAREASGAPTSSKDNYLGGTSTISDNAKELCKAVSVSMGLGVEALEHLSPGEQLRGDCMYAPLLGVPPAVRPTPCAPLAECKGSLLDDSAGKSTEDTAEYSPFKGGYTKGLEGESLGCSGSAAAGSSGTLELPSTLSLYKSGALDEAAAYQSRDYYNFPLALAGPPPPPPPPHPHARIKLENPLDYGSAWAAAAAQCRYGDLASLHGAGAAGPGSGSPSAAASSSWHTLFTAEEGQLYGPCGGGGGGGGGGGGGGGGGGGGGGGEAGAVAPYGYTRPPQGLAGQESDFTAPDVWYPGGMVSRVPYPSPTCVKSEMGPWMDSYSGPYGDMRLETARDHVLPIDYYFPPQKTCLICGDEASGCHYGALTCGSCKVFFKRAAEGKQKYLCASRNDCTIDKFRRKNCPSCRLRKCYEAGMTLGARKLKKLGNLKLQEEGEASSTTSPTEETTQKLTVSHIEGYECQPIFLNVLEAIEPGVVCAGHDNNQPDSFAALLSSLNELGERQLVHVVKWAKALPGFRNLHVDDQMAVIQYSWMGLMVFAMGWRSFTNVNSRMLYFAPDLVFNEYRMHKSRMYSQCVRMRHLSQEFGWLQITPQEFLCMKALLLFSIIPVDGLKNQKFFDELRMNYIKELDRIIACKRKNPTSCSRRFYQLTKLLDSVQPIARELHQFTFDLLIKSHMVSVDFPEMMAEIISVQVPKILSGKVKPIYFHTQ
Source text: The solvents, reagents, and ligands employed in the functional assay are readily available from commercial sources, or can be prepared by one of ordinary skill in the art.
Human embryonic kidney HEK293 cells are transfected with steroid hormone receptor and reporter gene plasmids using Fugene™ (Roche Diganostics) transfection reagent. Briefly, the reporter plasmid containing two copies of probasin ARE (androgen response element 5′GGTTCTTGGAGTACT3′ (SEQ ID NO:1)) and TK(thymidine kinase) promoter upstream of the luciferase reporter cDNA, is transfected into HEK293 cells with a plasmid constitutively expressing human androgen receptor (AR) using viral CMV(cytomegalovirus) promoter. The reporter plasmid containing two copies of GRE (glucocorticoid response element 5′TGTACAGGATGTTCT′3 (SEQ ID NO:2)) and TK promoter upstream of the luciferase reporter cDNA is transfected with a plasmid constitutively expressing either human glucocorticoid receptor (GR), human mineralocorticoid receptor (MR), or human progesterone receptor (PR) using viral CMV promoter. Cells are transfected in T150 cm flasks in DMEM media with 5% charcoal-stripped Fetal Bovine Serum (FBS). […] In the antagonist mode for the assays, low concentrations of agonist for each respective receptor are added to the media (0.25 nM dexamethasone for GR, 0.3 nM of methyltrienolone for AR, 0.05 nM of promegestone for PR and 0.05 nM aldosterone for MR), and the ability of test compound to antagonize the agonist response is determined. After 24 hours of incubation with test compounds, cells are lysed and luciferase activity is determined using standard techniques.
Data are fitted to a four parameter-fit logistic curve fit to determine EC50 values. […] IC50 values may be determined similarly using antagonist mode assay data. Percent inhibitions may also be determined relative to the response in the presence of agonist alone, as described above.

serum osteocalcin = experiment: Serum osteocalcin assay; assay type: in vivo, mouse; conditions: mice, oral, seven days; 1 mg/kg/day Compound (I) vs 10 mg/kg/day prednisolone; mean of 6
Source text: Bone loss/osteoporosis and the resulting increased risk of fracture is a common and significant adverse effect that results from glucocorticoid therapy. Glucocorticoid induced osteoporosis is believed to result, at least in part, from an inhibition of bone formation. The measurement of serum osteocalcin, a biological marker of bone synthesis, is a recognized tool for assessing the adverse effects of glucocorticoid therapy on bone. (see Pearce et al., J. Clin. Endocrino. Metab. 83: 801-806, (1998)).
To assess the effects of Compound (I) on bone formation, Compound (I) is formulated in a vehicle comprising 5% carboxymethyl cellulose and 0.25% Tween 80 and administered orally via gavage to sixteen week old male Swiss-Web mice (Harlan Industries, Indianapolis, Ind.) for seven days. For comparison, prednisolone is administered orally in the same vehicle. Serum is collected 24 hours after the last dose and osteocalcin levels are determined using a competitive radioimmunoassay (RIA) kit (Biomedical Technologies, Inc., Stoughton, Mass.) modified to a 96 well format. […] The filters are punched and the radioactivity quantitated on a gamma counter (Cobra II, Packard Instruments, Meriden, Conn.). Radioactivity detected on the filters from test samples is inversely proportional to serum osteocalcin concentration. […]

- EC50 ([1]; agonist mode, activating transcription): > 10 µM
- modulation of gene expression mediated by AR ([1]; functional modulation, in words): only limited activity
- AR % Eff. ([1]; percent efficacy at 10 μM relative to 100 nM methyltrienolone, mean of 3): 2.4%
- reduction in serum osteocalcin levels compared with prednisolone (serum osteocalcin): less reduction
Structure (SMILES): CC/C(=C1\c2ccc(Cl)cc2OCc2ncccc21)c1cccc(NS(C)(=O)=O)c1 [Compound (I), (E)-N-{3-[1-(8-Chloro-11H-10-oxa-1-aza-dibenzo[a,d]cyclohepten-5-ylidene)-propyl]-phenyl}-methanesulfonamide]
